Legend:
[1] = test system: polychromatic erythrocytes; test: Micronucleus frequencies (MNPCEs) as genotoxicity endpoint; assay type: in vivo, Sprague Dawley male rats; details: 30 mg/kg, seven days
Method: In addition to sampling for biochemical and haematological analysis, one drop of blood samples was obtained from the animals for evaluating micronucleus frequencies as genotoxicity endpoint at the end of the experiments. Three different smears of each rat were prepared using pre-coded and cold slides, then the slides air-dried at room temperature, and fixed in ethanol for 10 min, and stained with Giemsa. […] The incidence of MN-PCEs was determined by scoring a total of 3000 PCE per animal and results were expressed as % MN [12].

HSD fed rats = test: In vivo efficacy study in high sucrose diet (HSD) steatosis rats; details: HSD plus 30 mg/kg seven days
Text: In vivo efficacy studies. After 1-week acclimation period, rats were randomly separated into two groups: control group (n=5) and high sucrose group (n=20). The control group was fed with a standard diet while the others consumed high sucrose diet (HSD). Sucrose was purchased from Sigma Chemical Co. (St Louis, MO, USA) and supplied at the dose of 10% in the drink water for two weeks.
After 2 weeks, five rats in the HSD group were randomly sacrificed for conformation of NAFLD model. Then, the remaining rats in the HSD group were separated into three sub-groups (n=5): HSD group, HSD plus BX-912 group and HSD plus JNK-IN-5A group. BX-912 and JNK-IN-5A were dissolved in DMSO and were orally administrated using oral gavage for one week (30 mg/kg/day). The HSD group were treated with vehicle solution only.
At the end of the experiment, rats were sacrificed after being anesthetized. Blood samples were collected from the abdominal aorta and centrifuged at 8000 rpm for 15 min at 4° C. The plasma was separated and stored at −80° C. until further analysis. Other internal organs, including the heart, adipose tissues, liver, kidney, muscle, intestine (duodenum, ileum, jejunum), pancreas, colon and stomach were immediately removed and then snap frozen in liquid nitrogen and stored at −80° C.; the liver was also fixed in 10% formaldehyde for histopathological examination.
Histopathological examination. The liver tissues were fixed in 10% buffered formaldehyde solution. After fixation, the tissues were passed through graded alcohol and xylene series and embedded in paraffin blocks. 5 micrometer thick sections were taken serially from the paraffin blocks. Histopathological changes were evaluated by performing hematoxylin eosin staining on the sections taken. Sections were evaluated according to histopathological findings as none (−), mild (+), moderate (++) and severe (+++).
Immunohistochemical examination. After deparaffinization, the slides were immersed in antigen retrieval solution (pH 6.0) and heated in microwave for 15 min to unmask the antigens. The sections were then dipped in 3% H2O2 for 10 min to block endogenous peroxidase activity. Protein block was dropped onto the sections, washed with PBS for 10 min. Primary antibodies (8-OH-dG, Cat No: sc-66036, Diluent Ratio: 1/100, Santa Cruz) were prepared and applied according to the usage conditions. Expose mouse and rabbit specific HRP/DAB detection IHC kit were used as follows: sections were incubated with goat anti-mouse antibody, then with streptavidin peroxidase, and finally with 3,3′ diamino benzidine+chromogen. Slides were counter stained with hematoxylin. Immunoreactivity in the sections were graded as none (−), mild (+), moderate (++) and severe (+++).

PKL = test: Western blot, PKL; assay type: cell-based, human; details: 10 μM, 2 days
Method: (§1) HepG2 cells were seeded into a 6-well plate at 400,000 cells per well. After treatment with 10 μM of JNK-IN-5A and its derivatives for two days, lysates were harvested with CelLytic M (C2978, Sigma-Aldrich). 20 μg lysate was prepared with 2× Laemmli Sample Buffer (1610737, Biorad). SDS PAGE were performed using Mini-PROTEAN® TGX™ Precast Gels (Bio-Rad) and transferred using Trans-Blot® Turbo™ Transfer System (Bio-Rad). Primary antibody, PARP (95425, Cell signalling), Caspase 3 (ab32042, abcam), Bcl-2 (ab182858), STAT1 (HPA000982, Merk), PKL (06653, Sigma), PKM (4053S, Cell signalling), GAPDH (ab8245, abcam), P53 (ab32389, abcam), p21 (ab109199, abcam), p-S349 p62 (ab211324, abcam), p62 (ab109012, abcam), c-Myc (ab32072, abcam), GPX4 (ab125066, abcam), MMP9 (MA5-32705, Invitrogen), β-actin (ab8227, abcam), and α-tubulin (ab7291, abcam) were blotted overnight and Goat Anti-Rabbit HRP (ab205718) and goat anti-mouse IgG-HRP (sc2005, Santa Cruz Biotechnology, Inc.) were blotted for secondary antibody for one hour. ImageQuantTMLAS 500 (29-0050-63, GE) was used to detect protein bands.

p21 = test: Nuclear protein western blot, p21; assay type: cell-based, human; details: 10 μM, 2 days
Method: as §1

HepG2 cells [2] = test: Autophagy assay; assay type: cell-based, human; details: 10 μM, one day
Method: (§2) HepG2 cells were seeded into a 6-well plate at 400,000 cells per well. After treatment with the compounds at desired concentration and time, TMRE (ab113852, abcam), Autophagy (ab139484, abcam), ROS (ab113851, abcam), and Lipid peroxidation (ab243377, abcam) assay were performed according to manufacturer's instructions. Fluorescence images were taken using ZOE™ Fluorescent Cell Imager (Biorad) and ROI of fluorescence intensity was measured and calculated by Image J. For microplate reader florescence assay, 40,000 of HepG2 cells were seeded into a 96-well plate and triplicated. GFP (Ex480 nm, Em530 nm) and RFP (Ex549 nm, Em574 nm) were measured using a microplate reader (Hidex Sense Meta Plus).

p62 (SQSTM1) = test: Western blot, p62 and p-S349 p62; assay type: cell-based, human; details: 10 μM, 2 days
Method: as §1

HepG2 cells [3] = test: Lipid peroxidation assay; assay type: cell-based, human
Method: as §2

SMILES: N#Cc1c(NC(=O)c2cccc3ccccc23)sc2c1CCCC2 [JNK-IN-5A, N-(3-cyano-4,5,6,7-tetrahydrobenzo[b]thiophen-2-yl)-1-naphthamide]
- genotoxic potential [1]: non-genotoxic
- frequencies of MNPCEs compared to Ctrl animals ([1]; p>0.05): not statistically different
- toxic effect on small intestine, large intestine, stomach, heart and muscle tissues (HSD fed rats): no toxic effect
- degeneration in hepatocytes in liver tissues (HSD fed rats; HSD 3w severe): mild
- degeneration in renal tubule epithelium (HSD fed rats; HSD 3w severe): mild
- fattening in the parenchyma cells of pancreas tissues (HSD fed rats; HSD 3w severe): mild
- steatosis in hepatocytes in liver tissues (HSD fed rats; HSD 3w severe): mild
- 8-OH-dG expression in hepatocytes (HSD fed rats; HSD 3w strong): significantly decreased
- PKL expression (PKL): notably decreased
- p21 nuclear localization (p21): localized in the nucleus
- autophagy GFP signals (HepG2 cells [2]): significantly increased

SMILES: COc1ccc(C(=O)Nc2sc3c(c2C#N)CCCCC3)cc1OC [PKL-A135, N-(3-cyano-5,6,7,8-tetrahydro-4H-cyclohepta[b]thiophen-2-yl)-3,4-dimethoxy-benzamide]
- levels of p62 and P-S349 p62 (p62 (SQSTM1)): significantly elevated

SMILES: N#Cc1c(NC(=O)c2cccc3ccccc23)sc2c1CCN(CC(=O)Nc1cccc(Br)c1)C2 [PKL-B171]
- GFP/RFP ratio (lipid peroxidation) (HepG2 cells [3]): statistically significant increase

— US20260234159A1, “SMALL MOLECULE TREATMENT OF FATTY LIVER DISEASE AND HCC” (SCANDIEDGE THERAPEUTICS AB, priority 2023, published 2026)
